What was measured:
[1] = system: UGT (UDPGA-dependent glucuronidation); assay: Incubation of [14C]DCDQ with human liver microsomes (Km values, metabolite formation); format: in vitro ADME; settings: pH 7.4; 0.5 mg/mL human liver microsomes, [14C]DCDQ 0.5-100 μM, UDPGA, 10 min
Experimental: [^14C]DCDQ was mixed with non-radiolabeled DCDQ (1:3 or 1:5) in the incubations. Microsomal incubations consisted of [^14C]DCDQ, magnesium chloride (10 mM) and liver microsomes incubated in 0.5 mL of 0.1 M potassium phosphate buffer, pH 7.4. [^14C]DCDQ (20 μL) in water was added to the incubation tubes containing buffer, magnesium chloride solution and microsomes. After mixing, the tubes were pre-incubated for 2 minutes in a shaking water bath at 37° C. The reactions were initiated by the addition of UDPGA or the NADPH regenerating system. UDPGA was added to incubations as a 50 μL aliquot of a 20 mM solution in water, to give a final concentration of 2 mM. An NADPH regenerating system (30 μL) was added to incubations to evaluate CYP450-mediated metabolism. The NADPH regenerating system consisted of glucose-6-phosphate (2 mg/mL), glucose-6-phosphate dehydrogenase (0.8 units/mL) and NADP^+ (2 mg/mL). Control incubations were conducted under the same conditions, but without the NADPH generating system, UDPGA or microsomes. All incubations were performed in duplicate. Incubations were stopped by the addition of 0.5 mL ice-cold methanol. Samples were vortex-mixed. Denatured proteins were separated by centrifugation at 4300 rpm and 4° C. for 10 minutes (Model T21 super centrifuge, Sorvall). The protein pellets were extracted with 0.5 mL of methanol. The supernatant was combined for each sample, mixed and evaporated to a volume of about 0.3 mL under a nitrogen stream in a Zymark TurboVap LV evaporator (Caliper Life Science, Hopkinton, Mass.). The concentrated sample was centrifuged and aliquots were radioassayed and analyzed by HPLC. This method recovered an average of 92.1% of the radioactivity from the reaction mixture.
Initial rate conditions were determined for DCDQ metabolism in incubations with human liver microsomes in the presence of NADPH or UDPGA. Incubations for the time course study contained 20 μM of [^14C]DCDQ and 0.5 mg/mL of microsomal proteins, and were incubated at 37° C. with mild shaking for 0, 5, 10, 20, 30, 40, 50 and 60 minutes. The protein dependence study was conducted with 20 μM of [^14C]DCDQ incubated for 20 minutes with 0, 0.1, 0.25, 0.5, 0.75 and 1.0 mg/mL of microsomal proteins.
The Km values were determined with 0.5 mg/mL of human liver microsomes incubated with [^14C]DCDQ for 20 minutes with the NADPH regenerating system or for 10 minutes with UDPGA. [^14C]DCDQ concentrations used were 0.5,1, 5, 10, 25, 50, 75 and 100 μM.
To evaluate species differences in cytochrome P450- and UGT-mediated metabolism, [^14C]DCDQ was incubated for 20 minutes with 0.5 mg/mL liver microsomal proteins from mice, rats, dogs or humans in the presence of the NADPH regenerating system or UDPGA. The assay conditions were the same as described above, and DCDQ concentrations were 12 μM and 56 μM for cytochrome P450- and UGT-mediated metabolism, respectively.
A Waters model 2690 HPLC system (Waters Corp., Milford, Mass.) with a built-in autosampler was used for analysis. Separations were accomplished on a Phenomenex Luna C18(2) column (2×150 mm, 5 μm) (Phenomenex, Torrance, Calif.) coupled with a filter (4×2 mm) cartridge. A variable wavelength UV detector set to monitor 250 nm and Flo-One β Model A525 radioactivity flow detector (Perkin Elmer) with a 250 μL LQTR flow cell were used for data acquisition. The flow rate of Ultima Flow M scintillation fluid was 1 mL/min, providing a mixing ratio of scintillation cocktail to mobile phase of 5:1. The sample chamber in the autosampler was maintained at 4° C., while the column was at ambient temperature of about 20° C. The mobile phase consisted of 10 mM ammonium acetate, pH 4.5 (A) and methanol (B) and was delivered at 0.2 mL/min. The linear gradient conditions were as follows: […]

[2] = Incubation of [14C]DCDQ in dog fecal homogenate (stability); format: in vitro ADME; settings: 37° C. for 24 hours
Experimental: An average of 70.2% of the fecal radioactivity was extracted, while an average of 88.2% of the radioactivity was extracted from incubations of [^14C]DCDQ in blank fecal homogenate. In fecal extracts, DCDQ was major radioactive component, representing 54.4% to 96.7% of the total radioactivity. The metabolites detected in feces included hydroxy DCDQ (M2, M3 and M19), a keto DCDQ ([…]) and an uncharacterized peak (M20). The most abundant metabolite […] represented up to 16.4% of the total radioactivity in fecal extracts. The glucuronide of hydroxy DCDQ (M9) and the carbamoyl glucuronide of DCDQ (M6) were not detected in feces.

[3] = rats, previous mass balance study, oral dose; cited from earlier work
[4] = dog, enteric-coated capsule, mass balance study; cited from earlier work

## O=C(O)[C@H]1O[C@@H](OC(=O)N2CCN3C[C@@H]4CCC[C@@H]4c4cccc(c43)C2)[C@H](O)[C@@H](O)[C@@H]1O [Metabolite M6, carbamoyl glucuronide of DCDQ]
[1]
  Km at 10 min: 56.1 µM

## c1cc2c3c(c1)[C@H]1CCC[C@H]1CN3CCNC2 [[^14C]DCDQ]
[2]
  degradation in fecal homogenate: no obvious degradation
[3]
  dosed radioactivity recovered in urine: 64.3%
[4]
  dose recovered in urine: 32.7%
